US7256172B1, “Method of treatment and agents useful for same” (The University of Melbourne, priority 1998, dated 2007)
“And” between values parts separate entries of the source, which are not always exact repeats. Equal entries are not always repeated. No end group written: not given here.

Assays:
mouse trachea = system: mouse trachea
From the text: Mice were killed by a lethal overdose of sodium pentobarbitone and the tracheae rapidly excised. The trachea was opened longitudinally through the ventral cartilage rings to make a fiat sheet. Each sheet of trachea was mounted between two perspex chambers so that the mucosal (luminal) and submucosal and bathed with warmed, oxygenated Krebs' solution, independently on each side. Electrodes in the chambers allowed recordings of transepithelial potential difference using an amplifier. The tissue was voltage clamped at 0 mV by passing a current from the amplifier via another set of electrodes in the chambers. The amount of current required to maintain voltage at 0 mV is defined as the short circuit current (Isc) and is conventionally used as a measure of all ionic fluxes across the preparation.
(§1) After an equilibration time of 30 min, compounds for testing and drugs to elucidate the mechanism of any changes in Isc to the test compounds were added to either side of the tracheal epithelium (ie to either bath). Compounds used for increasing Isc were PGE2, adenosine 5′-triphosphate (ATP), uridine 5′-triphosphate (UTP) and the PAR1-, PAR2- and PAR4-activating peptides, SFLLRN (SEQ ID NO:1) and SLIGRL (SEQ ID NO:2) and GYPGQY (SEQ ID NO:6), respectively. These stimulants were added cumulatively with controls for any time-dependent tachyphylaxis.

rat bronchioles = system: rat bronchioles
From the text: The right and left main bronchi and their first order branches of specific pathogenfree (SPF) Balb/c mice (15–20 g; either sex), Hartley tricolour guinea-pigs (300–400 g; male) and Sprague-Dawley rats (200–350 g; either sex), all killed by either cervical dislocation or overdosed (i.p.) with sodium pentobarbitone, were cleared of surrounding connective tissue, nerves and blood vessels under a dissecting microscope and placed in cold, carbogenated (95% v/v O2,5% v/v CO2) Krebs solution (Kemp and Cocks, 1997). Human airway preparations (0.5–1 mm in external diameter) were dissected from lungs of cancer patients undergoing thoracotomy at The Royal Melbourne Hospital, Melbourne, Australia. The epithelium was removed from some bronchi either by mechanical abrasion of the luminal surface (guinea-pig) or by brief, gentle intraliminal flushing of the airways with Krebs containing 0.1% v/v Triton-X100 (mouse and rat). In each case, removal of the epithelium was verified histologically in 8 μm formalin-fixed, paraffin sections stained with haemotoxylin and eosin. Ring segments (approximately 2 mm long) of bronchi and bronchioles were mounted in Krebs (37° C.) on stainless steel wires (40 μm) in dual channel (5 ml) Mulvany-Halpern myographs (JP Trading, Aarhus, Denmark) to record changes in isometric force (Kemp and Cocks, 1997). After equilibration at a passive force between 0.2 g and 0.3 g, tissues were contracted to their maximum levels of active force (Fm.),) with acetylcholine (30 μM), thoroughly washed with Krebs and allowed to return to baseline. Various drugs or their vehicles were then added and 30 min later all tissues were contracted to approximately 40% Fmax with titrated concentrations of carbachol (10–500 nM). The L-type voltage-operated Ca^2+ channel inhibitor, nifedipine (0.3 μM) was added to all mouse and rat tissues after obtaining Fmax to control characteristic phasic contractile activity with carbachol.
All cumulative responses (relaxations and contractions) were normalised as percentages of the initial level of active force to carbachol. Results are presented as mean±s.e mean and pEC50 (sensitivity) values were calculated by fitting concentration-response curves to a four parameter logistic function (Kemp and Cocks, 1997) using Graphpad Prism (version 2.0). Statistical comparison of mean pEC50 and maximum response (Rmax) values were compared by two-tailed unpaired Student's t-tests or one way analysis of variance (ANOVA) with Tukey-Kramer's t-tests for multiple comparisons. P<0.05 was accepted as significant. Unless specified, all averaged data are from n>5 experiments.

anaesthetised rat = system: anaesthetised rat
Description: Male Sprague-Dawley rats (8 weeks) were anaesthetised (xylazine 10 mg/kg, ketamine 100 mg/kg and 50 mg/kg each 30 min thereafter, i.p.) and cannulae were placed in the trachea, carotid artery and jugular vein. Spontaneous breathing was stopped by an intravenous injection of pancuronium bromide (0.4 mg/kg and 0.2 mg/kg each 30 min thereafter) and rats were ventilated (tidal volume 8 ml/kg at 90 breaths/min, SAR-830 ventilator, CWE Inc., Ardmore, USA). Breath-to-breath measurement of airway resistance (RD and dynamic compliance (Cdyn) were calculated from flow and transpulmonary pressure recordings (PMS800, Mumed, London, UK). Flow was measured over the tracheal cannula (Fleisch pneumotachograph, Lausanne, Switzerland) and transpulmonary pressure was measured with a differential pressure transducer, one end being connected to the outlet of the tracheal cannula, the other to an air-filled cannula inserted in the oesophagus. A rectal probe was used to monitor body temperature. Serotonin (5-HT; 0.3 mg/kg i.v.) was administered as a bolus dose at 5 min intervals until reproducible changes in RL and Cdyn were obtained. Prior to each 5-HT challenge, lungs were hyperinflated once (by delivering twice the tidal volume) to prevent and reverse atelecasis. […]

[1] = system: mice challenged with bacterial lipopolysaccharide; conditions: 2 mg/kg or 20 mg/kg intranasal before LPS
Description: Mice were challenged with bacterial lipopolysaccharide (LPS; 10 μg/mouse) via intranasal administration under light halothane aneasthesia.
Three hours after receiving LPS, the mice were killed via an intraperitoneal injection of sodium pentabarbitone and the lungs were canulated and lavaged with 4×0.5 ml washes of phosphate buffered saline. The total number of cells retrieved by this procedure was determined with a haemocytometer. Differential counts of individual cell types were performed on cytospin preparations of the lavage fluid, stained with the conventional May-Grunwald/Giemsa blood stain. The total number of neutrophils in each sample was then calculated from the proportion of neutrophils in the cytospin preparations, as a proportion of the total number of cells retrieved.

[2] = system: pig tracheal muscle strips; conditions: contracted to approximately 30% maximal with carbachol
Description: Pig tracheal muscle strips of approximately 2 mm×2 mm in size and with mucosa were prepared by dissecting away overlying cartilage. Strips were suspended in Krebs solution under 1 g passive tension, and contracted to approximately 30% maximal contraction with carbachol (40 μM).

[3] = system: human bronchial epithelium; conditions: after amiloride
Description: Human airways were obtained from discarded sections of lungs of patients undergoing lobectomy operations at the Royal Melbourne Hospital, Melbourne, Australia usually for lung cancer. The dissection and set up were as described above for the mouse trachea.
as §1

monkey small bronchi = system: monkey small bronchi
From the text: The experimental details are similar to those for the mouse isolated bronchi. Briefly, approximately 2 mm long rings of small bronchi were mounted on wire hooks. In each trace, half log concentrations are not depicted for clarity.

guinea-pig taenia coli = system: guinea-pig taenia coli
Description: 2 cm strips of teania coil with intact Auerbach's plexus, but which had been stripped of the mucosa, were suspended in Kreb's solution under 1 g passive tension, and contracted with histamine (1 μM) to induce active tension.

human distal colon = system: human distal colon
Description: Human distal colon strips obtained at bowel resection were suspended at 1 g passive isometric force and contracted with substance P (30 μM) to maintain a steady level of active tension.

Substance: SLIGRL-NH2 [SLIGRL—NH2]
- increase in Isc in presence of indomethacin (mouse trachea; cyclooxygenase inhibitor indomethacin): unaffected
- change in Isc (mouse trachea; luminally applied): rapid initial rise in Isc usually followed by some degree of recovery until a steady plateau was reached
- Rmax (rat bronchioles): 67±5%
- pEC50 (rat bronchioles): 5.1±0.1 and 5.1±0.01
- inhibition of 5-HT-induced changes in airway resistance (RL) and dynamic compliance (Cdyn) (anaesthetised rat; 30 sec aerosol of 0.1 mg/ml solution): 50–70%
- duration of inhibition of bronchoconstriction to 5-HT (anaesthetised rat; aerosol of 1 mg/ml): at least 45 min
- inhibition of bronchoconstriction to 5-HT (anaesthetised rat; aerosol of 1 mg/ml): complete inhibition
- effect on LPS-induced neutrophil infiltration into the lungs [1]: dose-dependent inhibition of the increase of neutrophil infiltration into the lungs

Substance: SFLLRN [SFLLRN—NH2]
- relaxation of pig tracheal strip [2]: slow onset, near maximal relaxation of the tissue comparable in extent to that induced by isoprenaline
- change in Isc [3]: increases in Ise
- effect on monkey small bronchi (monkey small bronchi): smooth muscle relaxing effects
- relaxation in presence of apamin (guinea-pig taenia coli; apamin (100 μM)): inhibited
- relaxation of taenia coli (guinea-pig taenia coli; contracted with histamine (1 μM)): relaxed in response to TRAP in a concentration-dependent manner
- response of human distal colon (human distal colon): relaxed in an apparently apaminin sensitive manner
